Marks after values point to notes of the source that are not given here.
Legend:
Format in all cases: in vivo
[1] = tested on: Erysiphe graminis f. sp. tritici; assay: Test A: wheat powdery mildew, preventive spray on wheat seedlings, visual disease rating; details: 100 = 100% disease control
Excerpt: (§1) General protocol for preparing test suspensions for Tests A-E: the test compounds were first dissolved in acetone in an amount equal to 11% of the final volume and then suspended at the desired concentration (in ppm) in acetone and purified water (50/50 mix by volume) containing 250 ppm of the surfactant Trem® 014 (polyhydric alcohol esters). The resulting test suspensions were then used in Tests A-E. Spraying a 200 ppm test suspension to the point of run-off on the test plants was the equivalent of a rate of 800 g/ha.
The test suspension was sprayed to the point of run-off on wheat seedlings. The following day the seedlings were inoculated with a spore dust of Erysiphe graminis f. sp. tritici, (the causal agent of wheat powdery mildew) and incubated in a growth chamber at 20° C. for 8 days, after which time disease ratings were visually made.
(§2) Results for Tests A-E are given in Table A. In the Table, a rating of 100 indicates 100% disease control and a rating of 0 indicates no disease control (relative to the controls). A dash (-) indicates no test results. All results are for 200 ppm except where followed by an “*”, which indicates 40 ppm or “**”, which indicates 50 ppm.

[2] = tested on: Puccinia recondita f sp. tritici; assay: Test B: wheat leaf rust, preventive spray on wheat seedlings, visual disease rating; details: 100 = 100% disease control
Excerpt: as §1
The test suspension was sprayed to the point of run-off on wheat seedlings. The following day the seedlings were inoculated with a spore suspension of Puccinia recondita f sp. tritici (the causal agent of wheat leaf rust) and incubated in a saturated atmosphere at 20° C. for 24 h, and then moved to a growth chamber at 20° C. for 7 days, after which time disease ratings were visually made.
as §2

Septoria tritici = assay: Test C: wheat leaf blotch, preventive spray on wheat seedlings, visual disease rating; details: 100 = 100% disease control
Excerpt: as §1
The test suspension was sprayed to the point of run-off on wheat seedlings. The following day the seedlings were inoculated with a spore suspension of Septoria tritici (the causal agent of wheat leaf blotch) and incubated in a saturated atmosphere at 24° C. for 48 h, and then moved to a growth chamber at 20° C. for 19 days, after which time disease ratings were visually made.
as §2

Septoria nodorum = assay: Test D: wheat glume blotch, preventive spray on wheat seedlings, visual disease rating; details: 100 = 100% disease control; for pest or weed control at 50 ppm: Parastagonospora nodorum, 216 h
Excerpt: as §1
The test suspension was sprayed to the point of run-off on wheat seedlings. The following day the seedlings were inoculated with a spore suspension of Septoria nodorum (the causal agent of wheat glume blotch) and incubated in a saturated atmosphere at 20° C. for 48 h, and then moved to a growth chamber at 20° C. for 7 days, after which time disease ratings were visually made.
as §2

[3] = Blumeria graminis, 192 h, 50 ppm (**)

Compound	Test A disease control rating ([1]; 40 ppm (*))	Test B disease control rating ([2]; 40 ppm (*))	Test C disease control rating (Septoria tritici; 40 ppm (*))	Test D disease control rating (Septoria nodorum; 40 ppm (*))	other results
COC(=O)NCc1cc(-n2ccc(-c3ccc(C(F)(F)F)cc3C)n2)ccc1C [Cmpd 100]	99* %	100* %	97* %	100* %	–
COC(=O)NCc1cc(-n2ccc(-c3ccc(C(F)(F)F)cc3OC)n2)ccc1C [Cmpd 101]	99* %	100* %	94* %	100* %	–
COC(=O)NCc1cc(-n2ccc(-c3ccc(Br)cc3C)n2)ccc1C [Cmpd 102]	99* %	100* %	98* %	100* %	–
COC(=O)NCc1cc(-n2ncc(-c3ccc(OCC#N)cc3C)n2)ccc1C [Cmpd 105]	90* %	99* %	86* %	100* %	–
C#CCOc1ccc(-c2cnn(-c3ccc(C)c(CNC(=O)OC)c3)n2)c(C)c1 [Cmpd 106]	99* %	100* %	98* %	100* %	–
CCOc1ccc(-c2cnn(-c3ccc(C)c(CNC(=O)OC)c3)n2)c(C)c1 [Cmpd 107]	99* %	100* %	99* %	100* %	–
C#Cc1ccc(-c2ccn(-c3ccc(C)c(CNC(=O)OC)c3)n2)c(C)c1 [Cmpd 112]	100* %	100* %	97* %	100* %	–
C=Cc1ccc(-c2ccn(-c3ccc(C)c(CNC(=O)OC)c3)n2)c(C)c1 [Cmpd 113]	40* %	99* %	74* %	100* %	–
CCOc1ccc(-n2ccc(-c3ccc(C)c(CNC(=O)OC)c3)n2)c(C)c1 [Cmpd 120]	–	–	–	–	Test A disease control rating ([1]; 50 ppm (**)): 100** %; Test B disease control rating ([2]; 50 ppm (**)): 100** %; Test C disease control rating (Septoria tritici; 50 ppm (**)): 99** %
COC(=O)NCc1cc(-c2ccn(-c3ccc(OC(C)C)cc3C)n2)ccc1C [Cmpd 121]	–	–	–	–	Test A disease control rating ([1]; 50 ppm (**)): 100** %; Test B disease control rating ([2]; 50 ppm (**)): 100** %; Test C disease control rating (Septoria tritici; 50 ppm (**)): 98** %
COC(=O)NCc1cc(-c2ccn(-c3ccc(OC4CCCCC4)cc3C)n2)ccc1C [Cmpd 122]	87* %	91* %	–	–	–
COC(=O)NCc1cc(-c2ccn(-c3ccc(C(C)(C)C)cc3C)n2)ccc1C [Cmpd 124]	99* %	100* %	–	–	–
CCCOc1ccc(-n2ccc(-c3ccc(C)c(CNC(=O)OC)c3)n2)c(C)c1 [Cmpd 125]	98* %	100* %	–	–	–
COCCOc1ccc(-n2ccc(-c3ccc(C)c(CNC(=O)OC)c3)n2)c(C)c1 [Cmpd 126]	87* %	100* %	–	–	–
COC(=O)NCc1cc(-n2ccc(-c3ccc(C)cc3Br)n2)ccc1C [Cmpd 127]	100* %	100* %	93* %	100* %	–
CCOc1ccc(-c2ccn(-c3ccc(C)c(CNC(=O)OC)c3)n2)c(C)c1 [Cmpd 128]	99* %	100* %	98* %	100* %	–
CCOc1cc(F)ccc1-c1ccn(-c2ccc(C)c(CNC(=O)OC)c2)n1 [Cmpd 129]	98* %	100* %	68* %	100* %	–
COC(=O)NCc1cc(-n2ccc(-c3ccc(C)nc3OC)n2)ccc1C [Cmpd 131]	99* %	100* %	97* %	100* %	–
COC(=O)NCc1cc(-n2ncc(-c3ccc(C(F)(F)F)cc3C(F)(F)F)n2)ccc1C [Cmpd 132]	–	–	–	–	Test A disease control rating ([1]; 50 ppm (**)): 100** %; Test B disease control rating ([2]; 50 ppm (**)): 99** %; Test D disease control rating (Septoria nodorum; 50 ppm (**)): 100** %
COC(=O)NCc1cc(-c2ccn(-c3ccc(C(C)C)cc3C)n2)ccc1C [Cmpd 133]	–	–	–	–	Test A disease control rating ([1]; 50 ppm (**)): 100** %; Test B disease control rating ([2]; 50 ppm (**)): 100** %; Test D disease control rating (Septoria nodorum; 50 ppm (**)): 100** %
COC(=O)NCc1cc(-c2ccn(-c3ccc(OCC(C)C)cc3C)n2)ccc1C [Cmpd 134]	–	–	–	–	Test A disease control rating ([1]; 50 ppm (**)): 99** %; Test B disease control rating ([2]; 50 ppm (**)): 100** %; Test D disease control rating (Septoria nodorum; 50 ppm (**)): 100** %
CCOc1ccc(-c2ccn(-c3ccc(C)c(CNC(=O)OC)c3)n2)c(F)c1 [Cmpd 137]	100* %	100* %	97* %	100* %	–
COC(=O)NCc1cc(-c2ccn(-c3ccc(OC(F)(F)F)cc3C)n2)ccc1C [Compound 123, methyl N-[[2-methyl-5-[1-[2-methyl-4-(trifluoromethoxy)phenyl]-1H-pyrazol-3-yl]phenyl]methyl]carbamate]	–	–	–	–	pest or weed control at 40 ppm ([1]; Blumeria graminis, 192 h, 40 ppm (*)): 99%; pest or weed control at 40 ppm ([2]; 192 h, 40 ppm (*)): 100%
COC(=O)NCc1cc(-n2ncc(-c3ccc(OC)nc3OC)[n+]2[O-])ccc1C [Compound 135]	–	–	–	–	pest or weed control at 50 ppm [1, 3]: 99%; pest or weed control at 50 ppm ([2]; 192 h, 50 ppm (**)): 100%; pest or weed control at 50 ppm (Septoria nodorum; 50 ppm (**)): 100%
COC(=O)NCc1cc(-n2ncc(-c3ccc(OC)nc3OC)n2)ccc1C [Compound 136, methyl N-[[5-[4-(2,6-dimethoxy-3-pyridinyl)-2H-1,2,3-triazol-2-yl]-2-methylphenyl]methyl]carbamate]	–	–	–	–	pest or weed control at 50 ppm [1, 3]: 99%; pest or weed control at 50 ppm ([2]; 192 h, 50 ppm (**)): 100%; pest or weed control at 50 ppm (Septoria nodorum; 50 ppm (**)): 100%
methyl N-[[5-[1-(2,6-dimethoxy-3-pyridinyl)-1H-pyrazol-3-yl]-2-methylphenyl]-methyl]carbamate [Compound 116]	–	–	–	–	Test A disease control rating ([1]; 50 ppm (**)): 100** %; Test B disease control rating ([2]; 50 ppm (**)): 100** %; Test C disease control rating (Septoria tritici; 50 ppm (**)): 99** %

— patent publication US20150266850A1 (E.I.DU PONT DE NEMOURS AND COMPANY, priority 2012, published 2015)
